Data from the NIST ThermoML archive (doi:10.1021/acs.jced.9b00218).
Numbers after ± are expanded uncertainties.

Legend:
[1] = wn = mass fraction of the nth substance listed; settings: 298.15 K, 100 kPa, Liquid, Vibrating tube method
[2] = refractive index (Na D-line) (dimensionless); wn = mass fraction of the nth substance listed; settings: 298.15 K, 100 kPa, Liquid, Standard Abbe refractometry

SMILES: O=B[O-].[Li+] [lithium metaborate] + O
- mass density ([1]; w1 = 0.0336): 1035.63 ± 12 kg/m3
- refractive index ([2]; w1 = 0.0336): 1.3448 ± 0.002

SMILES: O=B[O-].[Na+] [sodium metaborate] + O
- mass density ([1]; w1 = 0.2259): 1280.56 ± 12 kg/m3
- refractive index ([2]; w1 = 0.2259): 1.38898 ± 0.002

SMILES: O=B[O-].[K+] [potassium metaborate] + O
- mass density ([1]; w1 = 0.4388): 1539.08 ± 12 kg/m3
- refractive index ([2]; w1 = 0.4388): 1.42543 ± 0.002
